13 compounds from patent US20130109734A1 (Metabolex, Inc., priority 2010, published 2013) can be followed below.

One assay has as its target T1, human GPR120 (Homo sapiens, UniProt Q5NUL3).
T1 construct: host or cells: HEK293 cells co-expressing Gqi5
T1 sequence (Q5NUL3 1-361): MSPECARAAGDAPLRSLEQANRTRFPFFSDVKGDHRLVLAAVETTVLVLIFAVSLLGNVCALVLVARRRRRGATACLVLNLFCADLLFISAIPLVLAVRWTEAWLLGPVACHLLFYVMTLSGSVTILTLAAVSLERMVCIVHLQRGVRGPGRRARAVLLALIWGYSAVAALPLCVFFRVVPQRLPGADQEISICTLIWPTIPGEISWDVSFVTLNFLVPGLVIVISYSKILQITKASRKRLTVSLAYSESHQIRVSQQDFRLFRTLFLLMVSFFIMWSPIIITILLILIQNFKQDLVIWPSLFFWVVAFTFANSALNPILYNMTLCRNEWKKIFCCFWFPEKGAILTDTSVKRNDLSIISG
Kind of assay: Intracellular Ca2+ assay in human GPR120 stable cell line (HEK293 co-expressing Gqi5), Flexstation. Format: cell-based. The settings on record: for % Activity (GW9508 Reference Compound): % activity at 5 μM compared to the maximal activity of GW9508 at 6.7 μM (=100%), human GPR120 cells, Ca2+ fluorescence. An outline of the steps:
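HEK293 cells stably co-expressing Gqi5 and Flag-tagged human GPR120, loaded with Calcium 4 dye in HBSS/HEPES pH 7.4 at 37 °C; compounds at eight concentrations, 0.00001–20 μM, fluorescence (485/525 nm) read 90 s. EC50 from Max−Min change; percent activity relative to GW9508 maximum at 6.7 μM.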

A further assay deals with C57BL/6J mice. Kind of assay: Intra peritoneal glucose tolerance test (IPGTT). Format: in vivo. To be noted: Mus musculus, 2 h; C57BL/6J mice fasted overnight, compound 30 mg/kg oral gavage at -30 min, 2 g/kg glucose intra peritoneally, incremental AUC 0-120 min vs vehicle; read-out: % reduction IPGTT at 30 mg/kg. As to the method:
8-10 week old male C57BL/6J mice (Harlan) were maintained on regular chow diet from Harlan (2018 Teklad Global). On the day before the experiment mice were fasted overnight, then randomized into groups (n=10-15) to receive the tested GPR120 agonist at doses ranging from 100 mg/kg or the vehicle (1% CMC, 2% TWEEN 80). Compounds were delivered orally via gavage at 10 mL/kg. Blood glucose levels were measured by glucometer (Ascensia Elite XL, Bayer) at time −30 minutes before administration of compound. Blood glucose was measured again after 30 minutes (at time 0), and then the mice were dosed intra peritoneally with 2 g/kg glucose at 10 mL/kg. Blood glucose measurements were taken 20, 40, 60, 90 and 120 minutes after glucose administration, by glucometer (Ascensia Elite XL, Bayer).
Glucose levels were plotted against time, and the incremental area under the curve (AUC) of the glucose excursion was determined from time 0 using Graphpad Prism 5.01. Outliers were excluded using Tukey's box plot outlier test, and statistical significance of differences in AUC of compound treatment compared to vehicle was determined by non-parametric Kruskal-Wallis test with Dunn's post test.
The compounds were tested at 30 mg/kg and the levels of blood glucose were determined in the presence and absence of the tested compounds. The percentage of glucose reduction is reported. […]

A value given as a limit tells only on which side of the number the result lay.

As for `CC(Cc1ccc(OCc2cc(Cl)cc3c2OC(C)(C)C3)cc1)C(=O)O` (stereo not shown) [Example 13], the “% Activity (GW9508 Reference Compound)” value on human GPR120 is reported as 119.0442%. Moreover, in the assay on C57BL/6J mice, the inhibition in vivo at 30 mg/kg worked out at 31%.
For `CC(Cc1ccc(OCc2cc(Cl)cc3c2OC(C)(C)C3)c(F)c1)C(=O)O` (stereo not shown) [Example 10, 3-(4-((5-chloro-2,2-dimethyl-2,3-dihydrobenzofuran-7-yl)methoxy)-3-fluorophenyl)-2-methylpropanoic acid], in that order: 106.7955% and 30.7%.
For `Cc1c(CCC(=O)O)ccc(OCc2cc(F)cc3c2OC(C)(C)C3)c1C` [Example 208, 3-(4-((5-fluoro-2,2-dimethyl-2,3-dihydrobenzofuran-7-yl)methoxy)-2,3-dimethylphenyl)propanoic acid], the “% Activity (GW9508 Reference Compound)” value at human GPR120 came to 147.47%.
Same read-out and setting: to `Cc1cc2cc(Cl)cc(COc3ccc(CC(C)C(=O)O)cc3F)c2o1` (stereo not shown) [Example 120, 3-(4-((5-chloro-2-methylbenzofuran-7-yl)methoxy)-3-fluorophenyl)-2-methylpropanoic acid] belongs 104.49%; to `CC1(C)Cc2cc(Cl)cc(COc3ccc(C(C)(C)CC(=O)O)cc3)c2O1` [Example 156, 3-(4-((5-chloro-2,2-dimethyl-2,3-dihydrobenzofuran-7-yl)methoxy)phenyl)-3-methylbutanoic acid], 148.87%; to `Cc1cc2cccc(COc3ccc4c(c3)CCC4CC(=O)O)c2s1` (stereo not shown) [Example 152, 2-(5-((2-methylbenzo[b]thiophen-7-yl)methoxy)-2,3-dihydro-1H-inden-1-yl)acetic acid], 83.81%.
`CC(Cc1ccc(NC(=O)c2cc(F)cc3c2OC(C)(C)C3)cc1)C(=O)O` (stereo not shown) [Example 68, 3-(4-(5-fluoro-2,2-dimethyl-2,3-dihydrobenzofuran-7-carboxamido)phenyl)-2-methylpropanoic acid]: at human GPR120, the “% Activity (GW9508 Reference Compound)” value was 69.03%. At human GPR120 (human GPR120 stably expressing cells, Ca2+ fluorescence (Max-Min), eight concentrations 0.00001 to 20 μM), the concentration giving a half-maximal response (EC50) was above 10 µM.
As for `CC1(C)Cc2c(ccc(F)c2COc2c(F)cc(C3CC3C(=O)O)cc2F)O1` (stereo not shown) [Example 99, 2-(3,5-difluoro-4-((5-fluoro-2,2-dimethyl-2,3-dihydrobenzofuran-4-yl)methoxy)phenyl)cyclopropanecarboxylic acid], on human GPR120, the “% Activity (GW9508 Reference Compound)” value was found to be 101.53%.
On the same count and under the same terms, the value for `CCc1cc(OCc2cc(F)cc3c2OC(C)(C)C3)ccc1CCC(=O)O` [Example 134, 3-(2-ethyl-4-((5-fluoro-2,2-dimethyl-2,3-dihydrobenzofuran-7-yl)methoxy)phenyl)propanoic acid] was 151.44%; that for `CC(C)Oc1cc(OCc2cc(Cl)cc3c2OC(C)(C)C3)ccc1CCC(=O)O` [Example 116, 3-(4-((5-chloro-2,2-dimethyl-2,3-dihydrobenzofuran-7-yl)methoxy)-2-isopropoxyphenyl)propanoic acid] was 145.6%.
On the same count and under the same terms, to `CC1(C)Cc2c(C(F)(F)F)ccc(COc3c(F)cc(C4CC4C(=O)O)cc3F)c2O1` (stereo not shown) [Example 31, 2-(4-((2,2-dimethyl-4-(trifluoromethyl)-2,3-dihydrobenzofuran-7-yl)methoxy)-3,5-difluorophenyl)cyclopropanecarboxylic acid] belongs 149.5%; to `CC(Cc1ccc(OCc2cc(Cl)cc3c2OC2(CCCC2)C3)cc1)C(=O)O` (stereo not shown) [Example 159, 3-(4-((5-chloro-3H-spiro[benzofuran-2,1′-cyclopentane]-7-yl)methoxy)phenyl)-2-methylpropanoic acid], 164.79%; to `Cc1cc(COc2ccc(CC(C)C(=O)O)cc2)c2c(c1)CC(C)(C)O2` (stereo not shown) [Example 4, 2-methyl-3-(4-((2,2,5-trimethyl-2,3-dihydrobenzofuran-7-yl)methoxy)phenyl)propanoic acid], 110.8%.

The EC50 is the concentration giving half of the maximal effect. Read a low EC50 as an effect from little substance.
